These results are taken from US20190330192A1, “SUBSTITUTED AZOLYLPYRROLONES AND AZOLYLHYDANTOINS AND SALTS THEREOF AND USE THEREOF AS HERBICIDAL ACTIVE SUBSTANCES” (Bayer CropScience Aktiengesellschaft, priority 2016, published 2019).

For this assay, the target named is T1, photosystem II (PS II) (Spinacia oleracea, UniProt P69560).
T1 construct: the chloroplasts were osmotically ruptured and the thylakoid membranes were then obtained by centrifugation; from tissue; host or cells: fresh spinach leaves; thylakoid membranes from isolated chloroplasts
The experiment in a line: Measurement of the PS II activity in thylakoid membranes (DCPIP reduction). The note with it: test compound at 100 μM; spinach thylakoid membranes; DCPIP absorption at 595 nm over 10 min at 22° C. with exposure to light; read-out: Effect (inhibition of PS II activity). Format: biochemical. The protocol: Cooled fresh spinach leaves were comminuted and homogenized in 50 mM phosphate buffer, pH 6.8. 10 mM KCl, 0.34 M sucrose (sucrose buffer) (blender, 1 g of plant material/ml). The homogenate was subsequently filtered through 4 layers of Miracloth and the chloroplasts were isolated by centrifugation, i.e. 10 min of centrifugation at 4400×g (4° C.). The sediment was suspended in 25 ml of sucrose buffer and re-centrifuged for 10 min at 4400×g (4° C.). The sediment was then suspended in 40 ml of 50 mM phosphate buffer, pH 6.8, 10 mM KCl, without sucrose. In this step, the chloroplasts were osmotically ruptured and the thylakoid membranes were then obtained by centrifugation (10 min, 4400×g, 4° C.). The membrane sediment was finally suspended in 20 ml of 50 mM phosphate buffer, pH 6.8, 10 mM KCl. […]
The electron transfer from PS II to an artificial electron acceptor, 2,6-dichlorophenolindophenol (DCPIP), was measured with exposure to light. The concentration of the blue oxidized form of DCPIP was determined spectrophotometrically at wavelength λ=595 nm. […]
Depending on the activity of the PS II preparation, the dilution was adjusted such that the measurement of the decrease in absorption (λ=595 nm) was linear for at least 10 min. […] On each microtiter plate, a known PS II inhibitor, for example metribuzin, was used as standard, which allowed the quality of the PS II test to be assessed. […]

Broadly, the inhibition is the share of the control response that was lost under treatment.

`CC1=C(Cl)C(=O)N(c2nnn(C)n2)C1O` (centres unmarked) [1.82-2, 3-Chloro-5-hydroxy-4-methyl-1-(1-methyl-1H-1,2,4,5-tetrazol-3-yl)-1,5-dihydro-2H-pyrrol-2-one]: the inhibition at 100 µM lay within 50 to 70%.
Take `CCC(=O)OC1C(C)=C(Cl)C(=O)N1c1nc(SC)n(C)n1` (centres unmarked) [1.74-185, 4-Chloro-3-methyl-1-[1-methyl-5-(methylsulfanyl)-1H-1,2,4-triazol-3-yl]-5-oxo-2,5-dihydro-1H-pyrrol-2-ylpropionate]: the inhibition at 100 µM (stock) is 30 to 50%.
